Reference: patent publication US20170209385A1, “ETHYLCELLULOSE DISPERSION AND FILM” (Dow Global Technologies LLC, priority 2014, published 2017)
Structures can show the parent of a compound that is named as a salt. Where two headings read alike, the source gives them in different places.

How the values were obtained:
[1] = 25° C.; cited from earlier work
[2] = Screening: visual/manual check whether a coalesced film formed; type: physicochemical
[3] = unitless; cited from earlier work
[4] = ethylcellulose dispersion plus additive, intact on and after removal from substrate

Compound	Film? Did the sample form a coalesced film? (yes or no) [2, 4]	W. Sol. solubility in water [1] [mg/mL]	Film? Did the sample form a coalesced film? (yes or no) [2]	logP logarithm of the water-octanol partition coefficient [3]
OCCOc1ccccc1 [2-phenoxy ethanol, 2-Phenoxyethanol]		30	yes	
CC(C)(C)CC(C)(C)c1ccc(OCCOCC[N+](C)(C)Cc2ccccc2)cc1 [benzethonium chloride]			no	
OCc1ccccc1 [benzyl alcohol]	yes	42.9		
O=C(OCc1ccccc1)c1ccccc1 [benzyl benzoate]	yes			3.81
CC[N+](CC)(CC(=O)Nc1c(C)cccc1C)Cc1ccccc1 [denatonium benzoate]	no			−0.088
CCCCOC(=O)CCCCCCCCC(=O)OCCCC [dibutyl sebacate]	yes			5.958
OCCNCCO [diethanolamine]	no			−1.761
CCOC(=O)c1ccccc1C(=O)OCC [diethyl phthalate]	yes			
COC(=O)c1ccccc1C(=O)OC [dimethyl phthalate]			yes	
OCC(O)CO [glycerol]	no	500		−1.85
CCCCC/C=C\C/C=C\CCCCCCCC(=O)O [linoleic acid]	yes			

Further lines, with some results ahead:

Film? Did the sample form a coalesced film? (yes or no) [2, 4]	Compound	W. Sol. solubility in water [1] [mg/mL]	Film? Did the sample form a coalesced film? (yes or no) [2]	logP logarithm of the water-octanol partition coefficient [3]
no	OC[C@@H](O)[C@@H](O[C@H]1O[C@H](CO)[C@@H](O)[C@H](O)[C@H]1O)[C@H](O)[C@@H](O)CO [maltitol]			
no	OC[C@@H](O)[C@@H](O)[C@H](O)[C@H](O)CO [mannitol]	182		−3.62
yes	CCCCCCCC/C=C\CCCCCCCC(=O)O [oleic acid]			
yes	CCCCCCCC/C=C\CCCCCCCCO [oleyl alcohol]			7.562
yes	OCCc1ccccc1 [phenylethyl alcohol]	20		
yes	CCCOC(=O)c1cc(O)c(O)c(O)c1 [propyl gallate]			1.779
yes	CC(O)CO (stereo not drawn) [propylene glycol]			−1.008
no	OC[C@@H](O)[C@@H](O)[C@H](O)[C@@H](O)CO [sorbitol]	182		−3.262
yes	CCCCCCCCCCCCCCCCCC(=O)O [stearic acid]			
no	O=C(O)CCC(=O)O [succinic acid]			−0.933
yes	CC(=O)OCC(COC(C)=O)OC(C)=O [triacetin]	1.16		0.216
yes	CCCCOC(=O)CC(O)(CC(=O)OCCCC)C(=O)OCCCC [tributyl citrate]			4.324
yes	CCOC(=O)CC(O)(CC(=O)OCC)C(=O)OCC [triethyl citrate]			1.267
no	OC[C@@H](O)[C@H](O)[C@@H](O)CO [xylitol]	1500		−2.65
